Measured values taken from ChEMBL document CHEMBL2150865, “Remarkable potential of the α-aminophosphonate/phosphinate structural motif in medicinal chemistry” (J Med Chem, 2011).

Legend:
[1] = Half life in pH 7.8 buffer; assay type: physicochemical
Rattus norvegicus [2] = assay: Suppression of acute pulmonary transplant rejection in rat at 100 mg/kg; assay type: functional
Rattus norvegicus [3] = assay: Suppression of acute pulmonary transplant rejection in rat at 100 mg/kg at 100 mg/kg followed by 60 mg/kg/day until day 4 after surgery measured on day 5 post initial dose; assay type: functional
[4] = Inhibition of urease in intact Proteus mirabilis
[5] = Inhibition of Bacillus pasteurii urease; set-up: species or system Sporosarcina pasteurii
[6] = molecular target: Matrix metalloproteinase-14 (Homo sapiens, UniProt P50281); assay: Inhibition of MMP-14
Collagenase 3 = Collagenase 3 (Homo sapiens, UniProt P45452); assay: Inhibition of MMP-13
[7] = Half life in human at 200 mg, im; assay type: ADME, organism-based; settings: in vivo
[8] = Half life in Sprague-Dawley rat at 20 mg/kg, sc administered as single dose; assay type: ADME, organism-based; set-up: dose 20 mg/kg, route subcutaneous; settings: in vivo
Rattus norvegicus [9] = assay: AUC in Sprague-Dawley rat at 20 mg/kg, sc administered as single dose; assay type: ADME, organism-based, Plasma; set-up: dose 20 mg/kg, route subcutaneous; settings: in vivo
[10] = Tmax in Sprague-Dawley rat at 20 mg/kg, sc administered as single dose; assay type: ADME, organism-based; set-up: dose 20 mg/kg, route subcutaneous; settings: in vivo
Rattus norvegicus [11] = species: Rattus norvegicus; assay: Inhibition of bone resorption in rat; assay type: functional; settings: read-out: MED
[12] = AUC in healthy human at 10 mg dosed as single daily dose; assay type: ADME, organism-based; settings: plasma
Homo sapiens [13] = assay: Reduction in arterial blood pressure in hypertensive patient receiving 10 to 40 mg/day, po dosed as single or multiple dose; assay type: functional; set-up: scale not given: the % may be the effect or the level left
[14] = Cmax in healthy human at 10 mg dosed as single daily dose; assay type: ADME, organism-based; set-up: dose 10 mg; settings: in vivo
Homo sapiens [15] = assay: Reduction in diastolic blood pressure in hypertensive patient receiving 10 to 40 mg/day, po dosed as single or multiple dose; assay type: functional, Artery; set-up: scale not given: the % may be the effect or the level left
[16] = Tmax in healthy human at 10 mg dosed as single daily dose; assay type: ADME, organism-based; settings: in vivo
[17] = Drug absorption in healthy human at 10 mg dosed as single daily dose; assay type: ADME, organism-based; settings: in vivo, read-out: Drug absorption
Homo sapiens [18] = assay: Reduction in systolic blood pressure in hypertensive patient receiving 10 to 40 mg/day, po dosed as single or multiple dose; assay type: functional, Artery; set-up: scale not given: the % may be the effect or the level left
Oryctolagus cuniculus = assay: Inhibition of DPP4 activity in rabbit plasma at 1 to 10 mg, iv; assay type: functional
Cytosol aminopeptidase = Cytosol aminopeptidase (Homo sapiens, UniProt P28838); assay: Inhibition of LAP
Aminopeptidase N = Aminopeptidase N (Homo sapiens, UniProt P15144); assay: Inhibition of APN
[19] = molecular target: T1, Angiotensin-converting enzyme (Homo sapiens, UniProt P12821); assay: Inhibition of human ACE N-terminal domain expressed in CHO cells after 90 mins by fluorescence assay; assay type: cell-based
[20] = molecular target: T1, Angiotensin-converting enzyme; assay: Inhibition of human ACE C-terminal domain expressed in CHO cells after 90 mins by fluorescence assay; assay type: cell-based
MDA-MB-231 = assay: Growth inhibition of human MDA-MB-231 cells; assay type: functional, cell-based
[21] = molecular target: T2, Farnesyl pyrophosphate synthase (Homo sapiens, UniProt P14324)
T2 sequence (P14324 whole entry): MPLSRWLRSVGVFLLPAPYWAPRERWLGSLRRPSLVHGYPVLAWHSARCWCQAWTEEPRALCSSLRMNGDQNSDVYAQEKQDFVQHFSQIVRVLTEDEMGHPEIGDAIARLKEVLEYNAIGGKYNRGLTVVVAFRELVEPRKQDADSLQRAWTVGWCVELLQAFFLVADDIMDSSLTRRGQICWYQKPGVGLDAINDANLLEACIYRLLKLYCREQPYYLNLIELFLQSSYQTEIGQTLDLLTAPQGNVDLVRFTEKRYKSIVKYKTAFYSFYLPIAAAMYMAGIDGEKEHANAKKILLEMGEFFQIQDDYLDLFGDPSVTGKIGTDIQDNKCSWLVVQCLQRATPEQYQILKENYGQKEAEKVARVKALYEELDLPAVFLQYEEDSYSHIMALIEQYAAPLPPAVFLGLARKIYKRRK

[22] = molecular target: T1, Angiotensin-converting enzyme; assay: Inhibition of ACE
[23] = Terminal half life in healthy human at 10 mg dosed as single daily dose; assay type: ADME, organism-based; settings: in vivo, read-out: beta t1/2 (converted)
[24] = Total body clearance in healthy human at 10 mg dosed as single daily dose; assay type: ADME, organism-based; settings: in vivo
[25] = Inhibition of bacterial APN; set-up: species or system Bacteria
[26] = Inhibition of ECE

T1 sequence (P12821 whole entry, the tested form may be a part): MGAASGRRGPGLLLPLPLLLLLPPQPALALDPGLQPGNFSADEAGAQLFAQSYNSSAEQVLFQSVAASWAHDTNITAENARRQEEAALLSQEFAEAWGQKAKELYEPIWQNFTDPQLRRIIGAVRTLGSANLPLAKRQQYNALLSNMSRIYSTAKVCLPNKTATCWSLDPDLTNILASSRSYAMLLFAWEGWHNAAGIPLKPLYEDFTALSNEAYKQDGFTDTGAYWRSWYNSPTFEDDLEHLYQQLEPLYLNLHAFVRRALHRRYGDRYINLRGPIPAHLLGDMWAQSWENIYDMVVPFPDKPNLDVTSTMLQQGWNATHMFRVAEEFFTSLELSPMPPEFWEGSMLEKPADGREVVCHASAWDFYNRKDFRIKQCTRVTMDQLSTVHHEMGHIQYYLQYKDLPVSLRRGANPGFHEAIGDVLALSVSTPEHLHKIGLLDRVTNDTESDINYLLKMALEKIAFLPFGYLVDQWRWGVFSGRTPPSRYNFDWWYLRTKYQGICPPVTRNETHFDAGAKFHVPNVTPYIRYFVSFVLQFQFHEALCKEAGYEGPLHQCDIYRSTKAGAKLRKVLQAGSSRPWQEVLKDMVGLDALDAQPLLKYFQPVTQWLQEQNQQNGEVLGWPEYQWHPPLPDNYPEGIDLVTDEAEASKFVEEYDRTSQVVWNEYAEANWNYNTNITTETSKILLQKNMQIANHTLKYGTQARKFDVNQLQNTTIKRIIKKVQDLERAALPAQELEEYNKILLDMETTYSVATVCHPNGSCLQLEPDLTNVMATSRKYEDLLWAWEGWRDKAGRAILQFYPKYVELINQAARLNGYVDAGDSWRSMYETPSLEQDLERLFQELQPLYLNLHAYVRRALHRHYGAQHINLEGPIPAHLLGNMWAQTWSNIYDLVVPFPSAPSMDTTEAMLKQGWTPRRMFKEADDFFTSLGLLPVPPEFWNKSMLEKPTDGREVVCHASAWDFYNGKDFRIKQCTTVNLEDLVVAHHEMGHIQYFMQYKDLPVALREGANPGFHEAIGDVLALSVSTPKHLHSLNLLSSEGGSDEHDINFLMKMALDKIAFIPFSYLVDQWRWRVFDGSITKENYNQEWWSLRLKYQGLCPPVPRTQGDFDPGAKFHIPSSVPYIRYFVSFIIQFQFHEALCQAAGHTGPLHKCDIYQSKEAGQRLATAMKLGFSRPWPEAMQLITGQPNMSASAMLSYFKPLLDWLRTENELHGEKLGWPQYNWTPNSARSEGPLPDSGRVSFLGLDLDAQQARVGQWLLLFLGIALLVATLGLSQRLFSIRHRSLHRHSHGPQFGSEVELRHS
Chain of Cytosol aminopeptidase (P28838 whole entry): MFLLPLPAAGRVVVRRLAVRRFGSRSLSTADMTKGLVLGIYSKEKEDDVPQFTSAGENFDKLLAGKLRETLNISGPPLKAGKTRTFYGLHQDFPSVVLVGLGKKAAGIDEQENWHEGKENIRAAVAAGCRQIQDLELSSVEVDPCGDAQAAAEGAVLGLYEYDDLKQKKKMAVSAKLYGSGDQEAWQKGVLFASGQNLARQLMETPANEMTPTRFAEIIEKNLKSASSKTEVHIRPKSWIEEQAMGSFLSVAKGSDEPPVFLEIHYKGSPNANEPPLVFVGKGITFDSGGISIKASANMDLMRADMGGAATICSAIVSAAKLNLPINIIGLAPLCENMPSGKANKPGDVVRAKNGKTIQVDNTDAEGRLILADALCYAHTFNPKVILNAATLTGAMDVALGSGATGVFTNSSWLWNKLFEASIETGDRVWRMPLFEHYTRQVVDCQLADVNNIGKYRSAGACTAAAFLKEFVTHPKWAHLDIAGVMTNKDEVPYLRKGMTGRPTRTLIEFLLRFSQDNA
Chain of Aminopeptidase N (P15144 whole entry, the tested form may be a part): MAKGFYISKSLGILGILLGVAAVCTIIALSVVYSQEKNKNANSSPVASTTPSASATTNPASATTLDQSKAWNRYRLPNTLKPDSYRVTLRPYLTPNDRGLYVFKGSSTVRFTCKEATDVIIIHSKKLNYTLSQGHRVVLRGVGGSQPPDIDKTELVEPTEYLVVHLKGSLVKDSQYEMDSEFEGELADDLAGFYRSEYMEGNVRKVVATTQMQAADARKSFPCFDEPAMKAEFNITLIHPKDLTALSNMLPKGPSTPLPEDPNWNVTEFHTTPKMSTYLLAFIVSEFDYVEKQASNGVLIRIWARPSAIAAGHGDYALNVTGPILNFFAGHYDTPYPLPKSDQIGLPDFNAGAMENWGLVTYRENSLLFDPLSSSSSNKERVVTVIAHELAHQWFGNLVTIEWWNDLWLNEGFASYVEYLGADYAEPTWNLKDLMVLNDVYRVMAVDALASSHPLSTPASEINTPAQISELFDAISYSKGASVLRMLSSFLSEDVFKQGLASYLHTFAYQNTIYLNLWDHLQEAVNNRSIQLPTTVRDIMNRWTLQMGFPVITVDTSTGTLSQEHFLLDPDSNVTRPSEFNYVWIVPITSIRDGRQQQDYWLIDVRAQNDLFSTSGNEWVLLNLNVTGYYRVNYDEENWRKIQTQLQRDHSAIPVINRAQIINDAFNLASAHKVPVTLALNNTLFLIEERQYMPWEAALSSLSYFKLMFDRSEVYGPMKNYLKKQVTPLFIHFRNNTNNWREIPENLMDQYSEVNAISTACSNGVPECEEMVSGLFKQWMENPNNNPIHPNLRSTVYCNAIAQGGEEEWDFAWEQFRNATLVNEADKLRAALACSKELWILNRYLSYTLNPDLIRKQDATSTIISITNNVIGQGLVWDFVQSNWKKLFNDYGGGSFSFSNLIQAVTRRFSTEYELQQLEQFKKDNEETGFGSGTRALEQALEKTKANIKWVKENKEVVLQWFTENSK

In the case of CC(=O)Nc1ccc(OP(=O)(Oc2ccc(NC(C)=O)cc2)C2CCCN2C(=O)[C@@H]2CCCN2)cc1 (stereo not given in full), the half-life [1] is reported as 320 min, the Activity (Rattus norvegicus [2]) is reported as greater than 95% and the Activity (Rattus norvegicus [3]) is reported as greater than 90%.

For CNCP(C)(=O)O [METHYL((METHYLAMINO)METHYL)PHOSPHINIC ACID], the IC50 [4] was 36 µM and the Ki [5] was 18 µM.

With NC(=O)[C@H](Cc1c[nH]c2ccccc12)NC(=O)[C@@H](CP(=O)(O)[C@H](Cc1ccccc1)NC(=O)OCc1ccccc1)c1cc(-c2cccc(Oc3ccccc3)c2)no1 the Ki [6] was 5.1 µM and the Ki (Collagenase 3) was 28 nM.

With CCOC(=O)CNC(=O)c1ccc(OP(=O)(Oc2ccc(C(=O)NCC(=O)OCC)cc2)C2CCCN2C(=O)[C@@H]2CCCN2)cc1 (stereo not given in full) the half-life [1] was 35 min.

For C[C@H](N)C(=O)N[C@@H](C)P(=O)(O)O [ALAFOSFALIN], the half-life [7] was 60 min, the half-life [8] was 20 min and the AUC (Rattus norvegicus [9]) was 25 µg·h/mL. It also gave a Tmax [10] of 20 min.

With C[C@H](N)C(=O)N1CCCC1P(=O)(Oc1ccc(Cl)cc1)Oc1ccc(Cl)cc1 (stereo not given in full) the half-life [1] was greater than 2880 min.

For C[C@H](N)C(=O)N1CCCCC1P(=O)(Oc1ccc(Cl)cc1)Oc1ccc(Cl)cc1 (stereo not given in full), the half-life [1] was greater than 2880 min.

For CP(=O)(O)CN [AMINOMETHYL(METHYL)PHOSPHINIC ACID], the Ki [5] was 340 µM.

Molecule NCCCC(O)(P(=O)(O)O)P(=O)(O)O [ALENDRONIC ACID] has a minimal effective dose (Rattus norvegicus [11]) of 1 µg/kg.

CCC(=O)O[C@@H](O[P@](=O)(CCCCc1ccccc1)CC(=O)N1C[C@H](C2CCCCC2)C[C@H]1C(=O)O)C(C)C [FOSINOPRIL] showed an AUC [12] of 1000 ng·h/mL, an Activity (Homo sapiens [13]) of 10% and a Cmax [14] of 100 ng/mL. It also gave an Activity (Homo sapiens [15]) of 10%, a Tmax [16] of 3 h and a Fa [17] of 30%. The Activity (Homo sapiens [18]) was 10%.

With O=C([C@@H]1CCCN1)N1CCCC1P(=O)(Oc1ccccc1)Oc1ccccc1 (stereo not given in full) the “inhibition (INH)” value (Oryctolagus cuniculus) was 80%.

In the case of CC(C)CC(N)P(=O)(O)O[C@@H](CC(C)C)C(=O)O (stereo not given in full), the Ki (Cytosol aminopeptidase) is reported as 58 µM.

Work on CC(C)CC(CP(=O)(O)[C@@H](N)CC(C)C)C(=O)O (mixture of isomers) yielded a Ki (Aminopeptidase N) of 1020 nM and a Ki (Cytosol aminopeptidase) of 0.065 µM.

CC(=O)N[C@@H](CC(=O)O)C(=O)N[C@@H](Cc1ccccc1)P(=O)(O)C[C@@H](C)C(=O)N[C@@H](C)C(N)=O showed a Ki [19] of 0.007 µM and a Ki [20] of 7.5 µM.

For CCCCCCCCCCOc1ccc[n+](CC(P(=O)([O-])O)P(=O)(O)O)c1 (stereo not given), the IC50 (MDA-MB-231) was 100 nM.

In the case of NCCC(O)(P(=O)(O)O)P(=O)(O)O [PAMIDRONIC ACID], the minimal effective dose (Rattus norvegicus [11]) is reported as 30 µg/kg.

Molecule O=P(O)(O)C(NC1CCCCCC1)P(=O)(O)O [INCADRONIC ACID] has an IC50 [21] of 30 nM and a minimal effective dose (Rattus norvegicus [11]) of 1 µg/kg.

For CN(C)CP(=O)(O)CO [(DIMETHYLAMINO)METHYL(HYDROXYMETHYL)PHOSPHINIC ACID], the Ki [5] was 5 µM.

With CNCP(=O)(O)CO [HYDROXYMETHYL((METHYLAMINO)METHYL)PHOSPHINIC ACID] the Ki [5] was 0.43 µM.

In the case of CN(C)CP(C)(=O)O [(DIMETHYLAMINO)METHYL(METHYL)PHOSPHINIC ACID], the Ki [5] is reported as 0.62 µM.

Work on O=C(N[C@@H](CCc1ccccc1)CP(=O)(O)CC(=O)N1CCC[C@H]1C(=O)O)c1ccccc1 yielded an IC50 [22] of 12 nM.

In the case of O=C(O)[C@@H]1C[C@@H](C2CCCCC2)CN1C(=O)CP(=O)(O)CCCCc1ccccc1 [FOSINOPRILAT], the half-life [23] is reported as 720 min, the Ki [22] is reported as 1.5 nM and the clearance [24] is reported as 25.8 mL/min.

With O=C(N[C@@H](Cc1ccccc1)P(=O)(O)C1CCC[C@H]1C(=O)N[C@@H](Cc1c[nH]c2ccccc12)C(=O)O)OCc1ccccc1 (stereo not given in full) the Ki [19] was 10 µM and the Ki [20] was 0.003 µM.

C[C@H](N)P(=O)(O)C[C@@H](Cc1ccccc1)C(=O)N[C@@H](Cc1ccccc1)C(=O)O gave a Ki [25] of 1.5 nM.

With O=P(O)(O)C(O)(Cc1cccnc1)P(=O)(O)O [RISEDRONIC ACID] the minimal effective dose (Rattus norvegicus [11]) was 0.3 µg/kg.

Molecule CP(O)(=S)CNC(=O)CNC(=O)OCc1ccccc1 (stereo not given) has a Ki [5] of 0.17 µM.

For O=C(N[C@@H](Cc1ccccc1)P(=O)(O)C[C@H](Cc1cc(-c2ccccc2)no1)C(=O)N[C@@H](Cc1ccc(O)cc1)C(=O)O)OCc1ccccc1, the Ki [26] was 14 nM.

With CC(=O)NO [ACETOHYDROXAMIC ACID] the IC50 [4] was 64.4 µM.

O.O=P(O)(O)C(O)(Cn1ccnc1)P(=O)(O)O [ZOLEDRONIC ACID] showed a minimal effective dose (Rattus norvegicus [11]) of 0.1 µg/kg.

Work on CP(=O)(O)CNC(=O)CN yielded a Ki [5] of 21 µM.

NCP(=O)(O)CO [AMINOMETHYL(HYDROXYMETHYL)PHOSPHINIC ACID] showed a Ki [5] of 95 µM.
